The results in this text go back to patent publication US20070299087A1, “New Compounds 319” (AstraZeneca AB, priority 2006, published 2007).

This assay has as its target T1, human β-Secretase (sBACE-Fc) (Homo sapiens, UniProt P56817).
T1 construct: The soluble part of the human β-Secretase (AA 1-AA 460) was cloned; Fc domain of IgG1 (C); made in house
In words: TR-FRET assay (β-secretase enzyme, substrate (Europium)[…](Qsy7)). It counts as biochemical. As to the method: The enzyme used in the IGEN Cleavage-, Fluorescent-, TR-FRET- and BiaCore assays is described as follows:
The soluble part of the human β-Secretase (AA 1-AA 460) was cloned into the ASP2-Fc10-1-IRES-GFP-neoK mammalian expression vector. The gene was fused to the Fc domain of IgG1 (affinity tag) and stably cloned into HEK 293 cells. Purified sBACE-Fc is stored in Tris buffer, pH 9.2 and has a purity of 95%.
Enzyme was diluted to 6 μg/mL and the substrate (Europium)[…](Qsy7) to 200 nM in reaction buffer (NaAcetate, chaps, triton x-100, EDTA pH 4.5). Compounds were diluted to the desired concentration in dimethyl sulfoxide (final dimethyl sulfoxide concentration in assay is 5%). The assay was done in a Costar 384 well round bottom, low volume, non-binding surface plate (Corning #3676). Enzyme (9 μL) and 1 μL of compound in dimethyl sulfoxide was added to the plate, mixed and pre-incubated for 10 min. Substrate (10 μL) was added and the reaction proceeded in the dark for 15 min at RT. The reaction was stopped with the addition of 7 μL NaAcetate, pH 9. The fluorescence of the product was measured on a Victor II plate reader with an excitation wavelength of 340 nm and an emission wavelength of 615 nm. […] The dimethyl sulfoxide control defined the 100% activity level and 0% activity was defined by exclusion of the enzyme (using reaction buffer instead).
On the technique in general: TR-FRET usually uses a lanthanide donor and a delayed reading to cut background.

Structures are written as SMILES. pIC50: −log10 of the molar value.

T1 sequence (P56817 22-460): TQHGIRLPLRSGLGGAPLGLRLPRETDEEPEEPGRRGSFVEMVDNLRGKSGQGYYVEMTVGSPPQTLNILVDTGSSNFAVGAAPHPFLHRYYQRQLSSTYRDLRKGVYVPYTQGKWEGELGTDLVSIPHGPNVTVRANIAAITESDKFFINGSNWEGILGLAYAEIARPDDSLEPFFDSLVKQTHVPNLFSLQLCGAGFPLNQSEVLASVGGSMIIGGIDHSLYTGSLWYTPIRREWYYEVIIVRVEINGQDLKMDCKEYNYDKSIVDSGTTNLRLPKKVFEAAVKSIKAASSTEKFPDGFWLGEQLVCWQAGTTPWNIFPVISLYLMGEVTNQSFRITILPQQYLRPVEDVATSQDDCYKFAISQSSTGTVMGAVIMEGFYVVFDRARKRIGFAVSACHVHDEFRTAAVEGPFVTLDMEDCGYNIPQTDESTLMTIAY

`CS(=O)(=O)c1cccc(-c2cccc(C3(c4ccncc4)N=C(N)N4CCCN=C43)c2)c1` (stereo not drawn) [Example 25, 8-[3′-(Methylsulfonyl)biphenyl-3-yl]-8-pyridin-4-yl-2,3,4,8-tetrahydroimidazo[1,5-a]pyrimidin-6-amine 0.25 acetate]: the pIC50 is 5.29.
`NC1=NC(c2ccsc2)(c2cccc(-c3cccnc3F)c2)C2=NCCCN12` (stereo not drawn) [Example 64, 8-[3-(2-Fluoropyridin-3-yl)phenyl]-8-(3-thienyl)-2,3,4,8-tetrahydroimidazo[1,5-a]pyrimidin-6-amine acetate] had a pIC50 of 6.61. Against the preceding molecule, the pIC50 is 1.32 log units higher.
The same measure for `NC1=NC(c2ccncc2)(c2ccc(F)c(-c3cccnc3F)c2)C2=NCC(F)(F)CN12` (stereo not drawn) [Example 81, 3,3-Difluoro-8-[4-fluoro-3-(2-fluoropyridin-3-yl)phenyl]-8-pyridin-4-yl-2,3,4,8-tetrahydroimidazo[1,5-a]pyrimidin-6-amine acetate]: 7.31; for `COc1cc(OS(C)(=O)=O)cc(-c2cccc(C3(c4ccncc4)N=C(N)N4CCCN=C43)c2)c1` (stereo not drawn) [Example 35, 3′-(6-Amino-8-pyridin-4-yl-2,3,4,8-tetrahydroimidazo[1,5-a]pyrimidin-8-yl)-5-methoxybiphenyl-3-yl methanesulfonate 0.25 acetate]: 7.24.
For `COc1cccc(-c2cccc(C3(c4ccco4)N=C(N)N4CCCN=C43)c2)c1` (stereo not drawn) [Example 51, 8-(2-Furyl)-8-(3′-methoxybiphenyl-3-yl)-2,3,4,8-tetrahydroimidazo[1,5-a]pyrimidin-6-amine acetate] the value was 6.33.
Consider `NC1=NC(c2ccncc2)(c2cccc(-c3cc(Cl)cnc3F)c2)C2=NCCCN12` (stereo not drawn) [Example 29, 8-[3-(5-Chloro-2-fluoropyridin-3-yl)phenyl]-8-pyridin-4-yl-2,3,4,8-tetrahydroimidazo[1,5-a]pyrimidin-6-amine 0.25 acetate], for which the pIC50 was 7.06.
The same measure for `COc1cc(Cl)cc(-c2cccc(C3(c4ccncc4)N=C(N)N4CCCN=C43)c2)c1` (stereo not drawn) [Example 27, 8-(3′-Chloro-5′-methoxybiphenyl-3-yl)-8-pyridin-4-yl-2,3,4,8-tetrahydroimidazo[1,5-a]pyrimidin-6-amine 0.25 acetate]: 7.18; for `COc1cccc(-c2cccc(C3(c4ccncc4)N=C(N)N4CC(F)(F)CN=C43)c2)c1` (stereo not drawn) [Example 72, 3,3-Difluoro-8-(3′-methoxybiphenyl-3-yl)-8-pyridin-4-yl-2,3,4,8-tetrahydroimidazo[1,5-a]pyrimidin-6-amine 1.25 acetate]: 7.17; for `N#Cc1ccc(F)c(-c2cccc(C3(c4ccncc4)N=C(N)N4CCCN=C43)c2)c1` (stereo not drawn) [Example 20, 3′-(6-amino-8-pyridin-4-yl-2,3,4,8-tetrahydroimidazo[1,5-a]pyrimidin-8-yl)-6-fluorobiphenyl-3-carbonitrile 0.25 acetate]: 6.40.

As usually defined, the pIC50 is −log10 of the IC50, conventionally taken in molar units.
